# Reference: patent US9388147B2 (Receptos, Inc., priority 2009, dated 2016)
# Target: S1P1/EDG1 (Homo sapiens, UniProt P21453)
# Experiment: S1P1 CRE-bla CHOK1 reporter assay, inhibition of Forskolin induced cAMP
# Format: cell-based
# Details: agonist activity range, S1P1 CRE-bla CHOK1, 2 μM Forskolin; read-out: S1P1 ACTIVITY
# Procedure: Generation of S1P1-Mediated Inhibition of cAMP Reporter Assay
# A mammalian expression plasmid containing S1P1/EDG1 cloned into pcDNA3.1 was purchased from Missouri S&T cDNA Resource Centre. […] S1P1/pcDNA3.1 was transfected into the CRE-bla CHO K1 (Invitrogen) cell line, and stable single cell clones were selected using standard techniques.
# S1P1 CRE-Bla CHOK1 Reporter Assay—Characterization of S1P1 Agonists
# Cells were seeded into 384-well black wall/clear bottom plates at 10^4 cells/well/19.5 μl assay media (DMEM-phenol free, 0.5% charcoal/dextran stripped serum, 2 mM glutamine, 0.1 mM NEAA, 1 mM Na-Pyruvate, 25 mM Hepes) and incubated for 18 hrs at 37° C. in 5% CO2. Dose response curves (10-point) were generated in 10 mM Hepes, 0.1% Pluronic F127, in the presence of Forskolin. Cells were treated with 0.5 μl compound in the presence of 2 μM Forskolin for 4 hrs at 37° C. The FRET-based β-lactamase fluorescent substrate (LiveBLAzer™-FRET B/G Loading Kit CC4-AM; Invitrogen) was prepared according to manufacturer's directions, and incubated with cells for 2 hrs at room temperature. […] Data was analyzed by non-linear regression to determine the EC50 for inhibition of Forskolin induced cAMP.
# Chain of S1P1/EDG1 (P21453 whole entry): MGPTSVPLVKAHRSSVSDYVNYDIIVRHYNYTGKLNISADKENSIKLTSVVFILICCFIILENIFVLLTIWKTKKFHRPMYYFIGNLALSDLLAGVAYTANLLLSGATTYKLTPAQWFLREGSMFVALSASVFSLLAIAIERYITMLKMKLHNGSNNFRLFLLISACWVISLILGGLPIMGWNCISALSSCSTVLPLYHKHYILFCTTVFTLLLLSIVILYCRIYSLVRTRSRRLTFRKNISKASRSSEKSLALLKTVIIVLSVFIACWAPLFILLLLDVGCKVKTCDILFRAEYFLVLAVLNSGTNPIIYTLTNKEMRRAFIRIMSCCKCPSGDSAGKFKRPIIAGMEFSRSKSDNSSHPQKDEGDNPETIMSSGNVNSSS
row,Compound,EC50
1,CC(C)Oc1ccc(-c2nc(-c3cccc4c3CC[C@H]4N[C@@H](C)C(=O)O)no2)cc1C#N [Compound 64],< 0.05 nM
2,CC(C)Oc1ccc(-c2nc(-c3cccc4c3CC[C@H]4NS(=O)(=O)CCN3CCOCC3)no2)cc1C#N [Compound 176],0.5 to 5 nM
3,CC(C)Oc1ccc(-c2nc(-c3cccc4c3CC[C@@H]4NCc3cncs3)no2)cc1C#N [Compound 161],0.05 to 0.5 nM
4,CC(C)Oc1ccc(-c2nc(-c3cccc4c3CCC4N3CC[C@@H](N)C3)no2)cc1C#N (mixture of isomers) [Compound 31],> 5 nM
5,COC(=O)CC1CCN(C(=O)N[C@H]2CCc3c(-c4noc(-c5ccc(OC(C)C)c(C#N)c5)n4)cccc32)CC1 [Compound 226],0.05 to 0.5 nM
6,CC(C)Oc1ccc(-c2nc(-c3cccc4c3CC[C@@H]4NC(=O)N3CC[C@@H](N(C)C)C3)no2)cc1C#N [Compound 244],0.5 to 5 nM
7,CC(C)Oc1ccc(-c2nc(-c3cccc4c3CC[C@@H]4NS(=O)(=O)CC(=O)N3CC(O)C3)no2)cc1C#N [Compound 189],0.05 to 0.5 nM
8,COCCOc1ccc(-c2nc(-c3cccc4c3CCC4NCCO)no2)cc1C#N (racemic) [Compound 106],> 5 nM
9,CNCCNC1CCc2c(-c3noc(-c4ccc(OC(C)C)c(C#N)c4)n3)cccc21 (racemic) [Compound 27],0.5 to 5 nM
10,CC(C)Oc1ccc(-c2nc(-c3cccc4c3CC[C@H]4NC(=O)CN)no2)cc1C#N [Compound 66],0.05 to 0.5 nM
11,CC(C)Oc1ccc(-c2nc(-c3cccc4c3CCC4NS(C)(=O)=O)no2)cc1C#N (stereo in doubt) [Compound 70],0.05 to 0.5 nM
12,CC(C)Oc1ccc(-c2nc(-c3cccc4c3CCC4NC3CCOCC3)no2)cc1C#N (racemic) [Compound 23],0.5 to 5 nM
13,CC(C)Oc1ccc(-c2nc(-c3cccc4c3CC[C@H]4NCC(=O)O)no2)cc1C#N [Compound 61],< 0.05 nM
14,"CC(C)Oc1ccc(C#N)cc1-c1nc(-c2cccc3c2CC[C@H]3N)no1 [Compound 99, (R)-3-(3-(1-amino-2,3-dihydro-1H-inden-4-yl)-1,2,4-oxadiazol-5-yl)-4-isopropoxy benzonitrile]",> 5 nM
15,CC(C)Oc1ccc(-c2nc(-c3cccc4c3CC[C@@H]4NC(=O)CN(C)C)no2)cc1C#N [Compound 136],0.05 to 0.5 nM
16,COCCN[C@H]1CCc2c(-c3noc(-c4ccc(OC(C)C)c(C#N)c4)n3)cccc21 [Compound 89],0.05 to 0.5 nM
17,CC(C)Oc1ccc(-c2nc(-c3cccc4c3CC[C@@H]4NCCCC(=O)O)no2)cc1C#N [Compound 146],< 0.05 nM
18,"CC(C)Oc1ccc(-c2nc(-c3cccc4c3CC[C@H]4NCCF)no2)cc1C#N [Compound 124, (R)-5-(3-(1-((2-fluoroethyl)amino)-2,3-dihydro-1H-inden-4-yl)-1,2,4-oxadiazol-5-yl)-2-isopropoxybenzonitrile]",0.05 to 0.5 nM
19,"CC(C)Oc1ccc(-c2nc(-c3cccc4c3CC[C@@H]4N[C@H](C)CO)no2)cc1C#N [Compound 55, 5-(3-((S)-1-(((R)-1-hydroxypropan-2-yl)amino)-2,3-dihydro-1H-inden-4-yl)-1,2,4-oxadiazol-5-yl)-2-isopropoxybenzonitrile]",0.05 to 0.5 nM
20,CC(C)Oc1ccc(-c2nc(-c3cccc4c3CC[C@H]4NCCO)no2)cc1Br [Compound 101],0.5 to 5 nM
21,CC(C)Oc1ccc(-c2nc(-c3cccc4c3CCC4N3CCNCC3)no2)cc1C#N (racemic) [Compound 47],0.05 to 0.5 nM
22,"CC(C)Oc1ccc(-c2nc(-c3cccc4c3CC[C@H]4N)no2)cc1 [Compound 96, (R)-4-(5-(4-isopropoxyphenyl)-1,2,4-oxadiazol-3-yl)-2,3-dihydro-1H-inden-1-amine]",> 5 nM
23,"CC(C)Oc1ccc(-c2nc(-c3cccc4c3CC[C@H]4NS(=O)(=O)CC(=O)N(C)C)no2)cc1C#N [Compound 194, (R)-2-(N-(4-(5-(3-cyano-4-isopropoxyphenyl)-1,2,4-oxadiazol-3-yl)-2,3-dihydro-1H-inden-1-yl)sulfamoyl)-N,N-dimethylacetamide]",< 0.05 nM
24,CC(C)Oc1ccc(-c2nc(-c3cccc4c3CC[C@H]4O)no2)cc1C(F)(F)F [Compound 7],0.5 to 5 nM
25,CC(C)Oc1ccc(-c2nc(-c3cccc4c3CCC4NCCN3CCOCC3)no2)cc1C#N (racemic) [Compound 21],0.5 to 5 nM
26,CC(C)Oc1ccc(-c2nc(-c3cccc4c3CC[C@H]4NC(=O)CN(C)C)no2)cc1C#N [Compound 67],0.05 to 0.5 nM
27,COC(=O)CC1CCN(C(=O)N[C@@H]2CCc3c(-c4noc(-c5ccc(OC(C)C)c(C#N)c5)n4)cccc32)CC1 [Compound 225],0.5 to 5 nM

row,Compound,EC50
1,CC(C)Oc1ccc(-c2nc(-c3cccc4c3CC[C@H]4NS(=O)(=O)Cc3ccccc3)no2)cc1C#N [Compound 81],0.5 to 5 nM
2,CC(C)Oc1ccc(-c2nc(-c3cccc4c3CC[C@@H]4NC(=O)N3CCC(O)CC3)no2)cc1C#N [Compound 241],0.05 to 0.5 nM
3,CC(C)Oc1ccc(-c2nc(-c3cccc4c3CC[C@@H]4NC(=O)N3CCC(N(C)C)CC3)no2)cc1C#N [Compound 247],0.5 to 5 nM
4,CC(C)Oc1ccc(-c2nc(-c3cccc4c3CC[C@H]4NCC(=O)N3CCCCC3)no2)cc1C#N [Compound 130],0.5 to 5 nM
5,CC(C)Oc1ccc(-c2nc(-c3cccc4c3CC[C@H]4NC(=O)N3CC[C@@H](O)C3)no2)cc1C#N [Compound 230],0.05 to 0.5 nM
6,CC(C)Oc1ccc(-c2nc(-c3cccc4c3CCC4NS(=O)(=O)c3ccccc3)no2)cc1C#N (stereo in doubt) [Compound 79],0.5 to 5 nM
7,"CC(C)Oc1ccc(-c2nc(-c3cccc4c3CC[C@H]4OC(=O)C(C)(C)C)no2)cc1C#N [Compound 14, (R)-4-(5-(3-cyano-4-isopropoxyphenyl)-1,2,4-oxadiazol-3-yl)-2,3-dihydro-1H-inden-1-yl pivalate]",> 5 nM
8,CC(C)Oc1ccc(-c2nc(-c3cccc4c3CC[C@@H]4N3CC(C(=O)O)C3)no2)cc1C#N [Compound 203],0.05 to 0.5 nM
9,CC(C)Oc1ccc(-c2nc(-c3cccc4c3CC[C@H]4NCC(=O)N3CCN(C)CC3)no2)cc1C#N [Compound 132],0.5 to 5 nM
10,"CC(C)Oc1ccc(-c2nc(-c3cccc4c3CC[C@@H]4N3CC(O)C3)no2)cc1C#N [Compound 84, (S)-5-(3-(1-(3-hydroxyazetidin-1-yl)-2,3-dihydro-1H-inden-4-yl)-1,2,4-oxadiazol-5-yl)-2-isopropoxybenzonitrile]",0.05 to 0.5 nM
11,CC(C)Oc1ccc(-c2nc(-c3cccc4c3CC[C@@H]4N3CC(C(=O)N4CCC4)C3)no2)cc1C#N [Compound 207],0.05 to 0.5 nM
12,CC(C)Oc1ccc(-c2nc(-c3cccc4c3CC[C@H]4NC(=O)N3CCC[C@@H](O)C3)no2)cc1C#N [Compound 219],0.5 to 5 nM
13,CCOc1ccc(-c2nc(-c3cccc4c3CC[C@H]4O)no2)cc1OCC [Compound 1],0.05 to 0.5 nM
14,CC(C)Oc1ccc(-c2nc(-c3cccc4c3CC[C@H]4N[C@H](C)c3ccccc3)no2)cc1C#N [Compound 251],> 5 nM
15,CC(C)Oc1ccc(-c2nc(-c3cccc4c3CC[C@H]4N)no2)cc1S(C)(=O)=O [Compound 252],0.5 to 5 nM
16,CNC(=O)CS(=O)(=O)N[C@@H]1CCc2c(-c3noc(-c4ccc(OC(C)C)c(C#N)c4)n3)cccc21 [Compound 199],< 0.05 nM
17,CC(C)Oc1ccc(-c2nc(-c3cccc4c3CCC4NS(=O)(=O)c3ccc(C(=O)O)cc3)no2)cc1C#N (stereo in doubt) [Compound 80],> 5 nM
18,CNC(=O)CN[C@@H]1CCc2c(-c3noc(-c4ccc(OC(C)C)c(C#N)c4)n3)cccc21 [Compound 52],0.05 to 0.5 nM
19,CC(C)Oc1ccc(-c2nc(-c3cccc4c3CC[C@@H]4NS(=O)(=O)CC(=O)N3CCC(O)CC3)no2)cc1C#N [Compound 193],0.05 to 0.5 nM
20,CC(C)Oc1ccc(-c2nc(-c3cccc4c3CCC4NC(C)(C)CO)no2)cc1C#N (racemic) [Compound 15],0.5 to 5 nM
21,CCOc1ccc(-c2nc(-c3cccc4c3CC[C@H]4O)no2)cc1C#N [Compound 3],0.05 to 0.5 nM
22,CC(C)Oc1ccc(-c2nc(-c3cccc4c3CC[C@H]4NS(=O)(=O)CC(=O)N3CCC3)no2)cc1C#N [Compound 201],< 0.05 nM
23,"CC(C)Oc1ccc(-c2nc(-c3cccc4c3CC[C@@H]4NC[C@@H](O)[C@H](O)[C@H](O)CO)no2)cc1C#N [Compound 119, 2-isopropoxy-5-(3-((S)-1-(((2R,3S,4R)-2,3,4,5-tetrahydroxypentyl)amino)-2,3-dihydro-1H-inden-4-yl)-1,2,4-oxadiazol-5-yl)benzonitrile]",0.5 to 5 nM
24,CC(C)Oc1ccc(-c2nc(-c3cccc4c3CC[C@H]4NCC(=O)N3CC[C@@H](O)C3)no2)cc1C#N [Compound 133],0.05 to 0.5 nM
25,CCN[C@H]1CCc2c(-c3noc(-c4ccc(OC(C)C)c(C#N)c4)n3)cccc21 [Compound 107],0.05 to 0.5 nM
26,"CC(C)Oc1ccc(-c2nc(-c3cccc4c3CC[C@@H]4NS(=O)(=O)CCN(C)C)no2)cc1C#N [Compound 78, (S)-N-(4-(5-(3 cyano-4-isopropoxyphenyl)-1,2,4-oxadiazol-3-yl)-2,3-dihydro-1H-inden-1-yl)-2-(dimethylamino)ethanesulfonamide]",0.5 to 5 nM
27,CC(C)Oc1ccc(-c2nc(-c3cccc4c3CC[C@@H]4N3CC(C(=O)N(C)C)C3)no2)cc1C#N [Compound 205],0.05 to 0.5 nM
